Assay results from US10076519B2 (CYTOKINETICS, INC., priority 2010, dated 2018).

Test system: rabbit skeletal myofibrils (fast skeletal myofibrils)
Test: Activation of fast skeletal myofibrils (PUMA assay, PK/LDH-coupled ATPase at pCa25)
Type: biochemical
Procedure, shortened: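 ATPase activity of Triton-washed rabbit skeletal myofibrils, roughly 90% fast fibres, tracked by NADH loss at 340 nm through a PK/LDH-coupled ADP-regenerating system. Calcium set to 25% of maximal activity (pCa25), in PIPES 12 mM pH 6.8 with 2 mM MgCl2 and 1 mM DTT; AC1.4 reported.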

[1] = AC1.4 determined according to the procedure of Example 39, reported as class symbols
[2] = median AC1.4 class, procedure of Example 39
[3] = median AC1.4 reported as class, procedure of Example 39

| Mean AC1.4 [1] | SMILES | further results |
| --- | --- | --- |
| A (A=<1 uM) | Nc1n[nH]c2ccc(-c3ccc(NCC4(c5ncccc5F)CCC4)nn3)cc12 [[6-(3-amino(1H-indazol-5-yl))pyridazin-3-yl]{[(3-fluoro(2-pyridyl))cyclobutyl]methyl}amine] | – |
| A (A=<1 uM) | Nc1n[nH]c2ccc(-c3ccc(NCC4(c5ccc(F)cc5)CCC4)nn3)cc12 [[6-(3-amino(1H-indazol-5-yl))pyridazin-3-yl]{[(4-fluorophenyl)cyclobutyl]meth-yl}amine] | – |
| A (A=<1 uM) | Nc1n[nH]c2ccc(-c3ccc(NCC4(c5ccc(F)cc5)CCCCC4)nn3)cc12 [[6-(3-amino(1H-indazol-5-yl))pyridazin-3-yl]{[(4-fluorophenyl)cyclohexyl]meth-yl}amine] | – |
| A (A=<1 uM) | Nc1n[nH]c2ccc(-c3ccc(NCC4(c5ccc(F)cc5)CCCC4)nn3)cc12 [[6-(3-amino(1H-indazol-5-yl))pyridazin-3-yl]{[(4-fluorophenyl)cyclopentyl]meth-yl}amine] | – |
| A (A=<1 uM) | Nc1n[nH]c2ccc(-c3ccc(NCC4(c5ccc(F)cc5)CC4)nn3)cc12 [[6-(3-amino(1H-indazol-5-yl))pyridazin-3-yl]{[(4-fluorophenyl)cyclopropyl]meth-yl}amine] | – |
| A (A=<1 uM) | Nc1n[nH]c2ccc(-c3ccc(NCC4(c5ccc(F)cn5)CCC4)nn3)cc12 [[6-(3-amino(1H-indazol-5-yl))pyridazin-3-yl]{[(5-fluoro(2-pyridyl))cyclobutyl]methyl}amine] | – |
| B (B=1-10 uM) | CC(C)(CNc1ccc(-c2ccc3c(N)n[nH]c3c2)nn1)c1ncccc1F [[6-(3-amino(1H-indazol-6-yl))pyridazin-3-yl][2-(3-fluoro(2-pyridyl))-2-methylpropyl]amine] | – |
| A (A=<1 uM) | CC(C)(CNc1ccc(-c2ccc3c(N)n[nH]c3c2)nn1)c1ccc(F)cc1 [[6-(3-amino(1H-indazol-6-yl))pyridazin-3-yl][2-(4-fluorophenyl)-2-methylpropyl]amine] | – |
| C (C=10-20 uM) | CC(C)(CNc1ccc(-c2ccc3c(N)n[nH]c3c2)nn1)c1ccc(F)cn1 [[6-(3-amino(1H-indazol-6-yl))pyridazin-3-yl][2-(5-fluoro(2-pyridyl))-2-methylpropyl]amine] | – |
| B (B=1-10 uM) | CC(C)(CNc1ccc(-c2cccc3c(N)n[nH]c23)nn1)c1ccc(F)cc1 [[6-(3-amino(1H-indazol-7-yl))pyridazin-3-yl][2-(4-fluorophenyl)-2-methylpropyl]amine] | – |
| B (B=1-10 uM) | Cn1nc(N)c2cc(-c3ccc(NCC(C)(C)c4ccc(F)cc4)nn3)ccc21 [[6-(3-amino-1-methyl(1H-indazol-5-yl))pyridazin-3-yl][2-(4-fluorophenyl)-2-methylpropyl]amine] | – |
| B (B=1-10 uM) | CC(C)(CNc1ccc(-c2ccc3onc(N)c3c2)nn1)c1ccc(F)cc1 [[6-(3-aminobenzo[3,4-d]isoxazol-5-yl)pyridazin-3-yl][2-(4-fluorophenyl)-2-methylpropyl]amine] | – |
| A (A=<1 uM) | CC(C)(CNc1ccc(-c2ccc3c(N)noc3c2)nn1)c1ccc(F)cc1 [[6-(3-aminobenzo[d]isoxazol-6-yl)pyridazin-3-yl][2-(4-fluorophenyl)-2-methylpropyl]amine] | – |
| A (A=<1 uM) | CC(C)(CNc1ccc(-c2cccc(N)c2)nn1)c1ccc(F)cc1 [[6-(3-aminophenyl)pyridazin-3-yl][2-(4-fluorophenyl)-2-methylpropyl]amine] | – |
| A (A=<1 uM) | Nc1cccc(-c2ccc(NCC3(c4ncccc4F)CCC3)nn2)c1 [[6-(3-aminophenyl)pyridazin-3-yl]{[(3-fluoro(2-pyridyl))cyclobutyl]methyl}amine] | – |
| – | Fc1cccnc1C1(CNc2ccc(-c3ncccc3Cl)nn2)CCC1 [[6-(3-chloro(2-pyridyl))pyridazin-3-yl]{[(3-fluoro(2-pyridyl))cyclobutyl]methyl}amine] | Mean AC1.4 [2]: C (C=10-20 uM) |
| A (A=<1 uM) | CC(C)(CNc1ccc(-c2cccc(Cl)c2)nn1)c1ccc(F)cc1 [[6-(3-chlorophenyl)pyridazin-3-yl][2-(4-fluorophenyl)-2-methylpropyl]amine] | – |
| B (B=1-10 uM) | CCc1n[nH]c2ccc(-c3ccc(NCC(C)(C)c4ccc(F)cc4)nn3)cc12 [[6-(3-ethyl(1H-indazol-5-yl))pyridazin-3-yl][2-(4-fluorophenyl)-2-methylpropyl]amine] | – |
| – | Fc1ccc(C2(Nc3ccc(-c4ccncc4F)nn3)CCC2)cc1 [[6-(3-fluoro(4-pyridyl))pyridazin-3-yl][(4-fluorophenyl)cyclobutyl]amine] | Mean AC1.4 [2]: B (B=1-10 uM) |
| A (A=<1 uM) | Nc1ccc(-c2ccc(NCC3(c4ncccc4F)CCC3)nn2)cc1F [[6-(4-amino-3-fluorophenyl)pyridazin-3-yl]{[(3-fluoro(2-pyridyl))cyclobutyl]meth-yl}amine] | – |

| Mean AC1.4 [1] | SMILES | further results |
| --- | --- | --- |
| A (A=<1 uM) | CC(C)(CNc1ccc(-c2ccc(N)cc2)nn1)c1ccc(F)cc1 [[6-(4-aminophenyl)pyridazin-3-yl][2-(4-fluorophenyl)-2-methylpropyl]amine] | – |
| A (A=<1 uM) | Nc1ccc(-c2ccc(NCC3(c4ncccc4F)CCC3)nn2)cc1 [[6-(4-aminophenyl)pyridazin-3-yl]{[(3-fluoro(2-pyridyl))cyclobutyl]methyl}amine] | – |
| B (B=1-10 uM) | CC(C)(CNc1ccc(-c2ccc(Cl)cc2)nn1)c1ccc(F)cc1 [[6-(4-chlorophenyl)pyridazin-3-yl][2-(4-fluorophenyl)-2-methylpropyl]amine] | – |
| – | Fc1cccnc1C1(CNc2ccc(-c3ncc(-c4nn[nH]n4)s3)nn2)CCC1 [[6-(5-(2H-1,2,3,4-tetraazol-5-yl)(1,3-thiazol-2-yl))pyridazin-3-yl]{[(3-fluoro(2-pyridyl))cyclobutyl]methyl}amine] | Mean AC1.4 [2]: B (B=1-10 uM) |
| – | Nc1ccc2nc(-c3ccc(NCC4(c5ncccc5F)CCC4)nn3)sc2n1 [[6-(5-amino(1,3-thiazolino[5,4-b]pyridin-2-yl))pyridazin-3-yl]{[(3-fluoro(2-pyridyl))cyclobutyl]methyl}amine] | Mean AC1.4 [2]: B (B=1-10 uM) |
| A (A=<1 uM) | Nc1ccc(-c2ccc(NCC3(c4ncccc4F)CCC3)nn2)nc1 [[6-(5-amino(2-pyridyl))pyridazin-3-yl]{[(3-fluoro(2-pyridyl))cyclobutyl]methyl}amine] | – |
| B (B=1-10 uM) | CC(C)(CNc1ccc(-c2cc(N)[nH]n2)nn1)c1ccc(F)cc1 [[6-(5-aminopyrazol-3-yl)pyridazin-3-yl][2-(4-fluorophenyl)-2-methylpropyl]amine] | – |
| – | Fc1cccnc1C1(CNc2ccc(-c3nc4ccc(Cl)nc4s3)nn2)CCC1 [[6-(5-chloro(1,3-thiazolino[5,4-b]pyridin-2-yl))pyridazin-3-yl]{[(3-fluoro(2-pyridyl))cyclobutyl]methyl}amine] | Mean AC1.4 [2]: C (C=10-20 uM) |
| B (B=1-10 uM) | CC(C)(CNc1ccc(-c2cccc(N)n2)nn1)c1ccc(F)cc1 [[6-(6-amino(2-pyridyl))pyridazin-3-yl][2-(4-fluorophenyl)-2-methylpropyl]amine] | – |
| A (A=<1 uM) | CC(C)(CNc1ccc(-c2ccc(N)nc2)nn1)c1ccc(F)cc1 [[6-(6-amino(3-pyridyl))pyridazin-3-yl][2-(4-fluorophenyl)-2-methylpropyl]amine] | – |
| – | Nc1ccc(-c2ccc(NC[C@]3(c4ncccc4F)C[C@H](F)C3)nn2)cn1 [[6-(6-amino(3-pyridyl))pyridazin-3-yl]{[3-fluoro-1-(3-fluoro(2-pyridyl))cyclobutyl]methyl}amine] | Mean AC1.4 [3]: A (A=<1 uM) |
| A (A=<1 uM) | Nc1ccc(-c2ccc(NCC3(c4ncccc4F)CCC3)nn2)cn1 [[6-(6-amino(3-pyridyl))pyridazin-3-yl]{[(3-fluoro(2-pyridyl))cyclobutyl]methyl}amine] | – |
| – | NC1CCc2nc(-c3ccc(NCC4(c5ncccc5F)CCC4)nn3)sc2C1 (stereo not shown) [[6-(6-amino(4,5,6,7-tetrahydrobenzothiazol-2-yl))pyridazin-3-yl]{[(3-fluoro(2-pyridyl))cyclobutyl]methyl}amine] | Mean AC1.4 [3]: D (D=>20 uM) |
| – | Nc1ncc(-c2ccc(NCC3(c4ncccc4F)CCC3)nn2)cc1F [[6-(6-amino-5-fluoro(3-pyridyl))pyridazin-3-yl]{[(3-fluoro(2-pyridyl))cyclobutyl]methyl}amine] | Mean AC1.4 [2]: A (A=<1 uM) |
| – | Cc1cc(-c2ccc(NC[C@]3(c4ncccc4F)C[C@H](F)C3)nn2)cnc1N [[6-(6-amino-5-methyl(3-pyridyl))pyridazin-3-yl]{[3-fluoro-1-(3-fluoro(2-pyridyl))cyclobutyl]methyl}amine] | Mean AC1.4 [3]: B (B=1-10 uM) |
| – | Fc1cc2[nH]ncc2cc1-c1ccc(NC2(c3ncccc3F)CCC2)nn1 [[6-(6-fluoro(1H-indazol-5-yl))pyridazin-3-yl][(3-fluoro(2-pyridyl))cyclobutyl]amine] | Mean AC1.4 [2]: B (B=1-10 uM) |
| – | CN(C)C(=O)c1ccc(NCC2(c3ncccc3F)CCC2)nn1 [[6-({[(3-fluoro(2-pyridyl))cyclobutyl]methyl}ami-no)pyridazin-3-yl]-N,N-dimethylcarboxamide] | Mean AC1.4 [3]: D (D=>20 uM) |
| – | O=C(Nc1nncs1)c1ccc(NCC2(c3ncccc3F)CCC2)nn1 [[6-({[(3-fluoro(2-pyridyl))cyclobutyl]methyl}ami-no)pyridazin-3-yl]-N-(1,3,4-thiadiazol-2-yl)carboxamide] | Mean AC1.4 [3]: B (B=1-10 uM) |
| – | O=C(Nc1ncco1)c1ccc(NCC2(c3ncccc3F)CCC2)nn1 [[6-({[(3-fluoro(2-pyridyl))cyclobutyl]methyl}ami-no)pyridazin-3-yl]-N-(1,3-oxazol-2-yl)carboxamide] | Mean AC1.4 [3]: D (D=>20 uM) |
| – | O=C(Nc1nccs1)c1ccc(NCC2(c3ncccc3F)CCC2)nn1 [[6-({[(3-fluoro(2-pyridyl))cyclobutyl]methyl}ami-no)pyridazin-3-yl]-N-(1,3-thiazol-2-yl)carboxamide] | Mean AC1.4 [3]: A (A=<1 uM) |
